Test results from US20230107642A1 (Erasca, Inc., priority 2020, published 2023).

Biological target: T1, K-Ras G12C (Homo sapiens, UniProt P01116, G12C)
T1 construct: This protein contained 188 amino acids in total, including an N-terminal 6-Histidine tag; made in house; host or cells: E. coli BL21
Assay: CAF assay (% CAF; method in Example 7, not in this part)
Type: binding
Details: 1 h; for % CAF @ 10 uM, 1h: Table 3

Row | Structure (SMILES) | % CAF @ 10 uM, 1h [%] | % CAF @ 10 μM, 1 h (10 μM, Table 4) [%]
1 | C=CC(=O)N1CCN(c2nc(=O)n3c4c(c(-c5c(F)cc(F)cc5F)c(Cl)cc24)SC[C@H]3COC)[C@@H](C)C1 [Example 137, (R)-7-((S)-4-acryloyl-2-methylpiperazin-1-yl)-9-chloro-3-(methoxymethyl)-10-(2,4,6-trifluorophenyl)-2,3-dihydro-5H-[1,4]thiazino[2,3,4-ij]quinazolin-5-one] | 86.8 | 86.8
2 | C=CC(=O)N1C2CC(=O)CC1CN(c1nc(=O)n3c4c(c(-c5ccc(F)cc5F)c(Cl)cc14)SCC3)C2 [Example 138, 7-(9-acryloyl-7-oxo-3,9-diazabicyclo[3.3.1]nonan-3-yl)-9-chloro-10-(2,4-difluorophenyl)-2,3-dihydro-5H-[1,4]thiazino[2,3,4-ij]quinazolin-5-one] | 95.8 | –
3 | C=CC(=O)N1CCN(c2nc(=O)n3c4c(c(-c5ccc(F)cc5F)c(Cl)cc24)SCC3)C[C@H]1C [Example 139, 7-((R)-4-acryloyl-3-methylpiperazin-1-yl)-9-chloro-10-(2,4-difluorophenyl)-2,3-dihydro-5H-[1,4]thiazino[2,3,4-ij]quinazolin-5-one] | 94.8 | –
4 | C=CC(=O)N1CCN(c2nc(=O)n3c4c(c(-c5ccc(F)cc5F)c(Cl)cc24)SCC3)C[C@@H]1C [Example 140, 7-((S)-4-acryloyl-3-methylpiperazin-1-yl)-9-chloro-10-(2,4-difluorophenyl)-2,3-dihydro-5H-[1,4]thiazino[2,3,4-ij]quinazolin-5-one] | 90.6 | –
5 | C=CC(=O)N1CCN(c2nc(=O)n3c4c(c(-c5ccc(F)cc5F)c(C(F)(F)F)cc24)SCC3)[C@@H](C)C1 [Example 141, 7-((S)-4-acryloyl-2-methylpiperazin-1-yl)-10-(2,4-difluorophenyl)-9-(trifluoromethyl)-2,3-dihydro-5H-[1,4]thiazino[2,3,4-ij]quinazolin-5-one] | 95.7 | –
6 | C=CC(=O)N1CCN(c2nc(=O)n3c4c(c(-c5ccc(F)cc5F)c(Br)cc24)SCC3)[C@@H](C)C1 [Example 142, 7-((S)-4-acryloyl-2-methylpiperazin-1-yl)-9-bromo-10-(2,4-difluorophenyl)-2,3-dihydro-5H-[1,4]thiazino[2,3,4-ij]quinazolin-5-one] | 94.7 | –
7 | C=CC(=O)N1CCN(c2nc(=O)n3c4c(c(-c5ccc(F)cc5F)c(C5CC5)cc24)SCC3)[C@@H](C)C1 [Example 143, 7-((S)-4-acryloyl-2-methylpiperazin-1-yl)-9-cyclopropyl-10-(2,4-difluorophenyl)-2,3-dihydro-5H-[1,4]thiazino[2,3,4-ij]quinazolin-5-one] | 95.4 | –
8 | C=CC(=O)N1CCN(c2nc(=O)n3c4c(c(-c5ccc(F)cc5F)c(Cl)cc24)SCC3)C2CSCC21 (stereo not shown) [Example 144, 7-(4-acryloylhexahydrothieno[3,4-b]pyrazin-1(2H)-yl)-9-chloro-10-(2,4-difluorophenyl)-2,3-dihydro-5H-[1,4]thiazino[2,3,4-ij]quinazolin-5-one] | 64.9 | –
9 | C=CC(=O)N1CCN(c2nc(=O)n3c4c(c(-c5ccc(F)cc5F)c(Cl)cc24)SCC3)C2CCC21 (stereo not shown) [Example 145, 7-(5-acryloyl-2,5-diazabicyclo[4.2.0]octan-2-yl)-9-chloro-10-(2,4-difluorophenyl)-2,3-dihydro-5H-[1,4]thiazino[2,3,4-ij]quinazolin-5-one] | 58 | –
10 | C=CC(=O)N1CCN(c2nc(=O)n3c4c(c(-c5c(F)cc(F)cc5F)c(Cl)cc24)SCC3)[C@@H](C)C1 [Example 146, (S)-7-(4-acryloyl-2-methylpiperazin-1-yl)-9-chloro-10-(2,4,6-trifluorophenyl)-2,3-dihydro-5H-[1,4]thiazino[2,3,4-ij]quinazolin-5-one] | 90.7 | –
11 | C=CC(=O)N1CCN(c2nc(=O)n3c4c(c(-c5ccc(F)cc5F)c(Cl)cc24)SCC3CN2CCOCC2)[C@@H](C)C1 (stereo partly drawn) [Example 147, 7-((S)-4-acryloyl-2-methylpiperazin-1-yl)-9-chloro-10-(2,4-difluorophenyl)-3-(morpholinomethyl)-2,3-dihydro-5H-[1,4]thiazino[2,3,4-ij]quinazolin-5-one] | 44.6 | –
12 | C=CC(=O)N1CCN(c2nc(=O)n3c4c(c(-c5ccc(F)cc5F)c(Cl)cc24)S(=O)(=O)CC3)[C@@H](C)C1 [Example 148] | 95.9 | –
13 | C=CC(=O)N1CCN(c2nc(=O)n3c4c(c(-c5ccc(F)cc5F)c(Cl)cc24)S(=O)(=O)CC3)[C@@H](C)C1 [Example 149, (S)-7-((S)-4-acryloyl-2-methylpiperazin-1-yl)-9-chloro-10-(2,4-difluorophenyl)-2,3-dihydro-5H-[1,4]thiazino[2,3,4-ij]quinazolin-5-one 1,1-dioxide] | 52.8 | –
14 | C=CC(=O)N1CCN(c2nc(=O)n3c4c(c(-c5ccc(F)cc5F)c(Cl)cc24)SCC3)[C@@H](CO)C1 [Example 150, 7-((R)-4-acryloyl-2-(hydroxymethyl)piperazin-1-yl)-9-chloro-10-(2,4-difluorophenyl)-2,3-dihydro-5H-[1,4]thiazino[2,3,4-ij]quinazolin-5-one] | 59.9 | –
15 | C=CC(=O)N1CCN(c2nc(=O)n3c4c(c(-c5ccc(F)cc5)c(Cl)cc24)SCC3)[C@@H](C)C1 [Example 151, (S)-7-(4-acryloyl-2-methylpiperazin-1-yl)-9-chloro-10-(4-fluorophenyl)-2,3-dihydro-5H-[1,4]thiazino[2,3,4-ij]quinazolin-5-one] | 94.1 | –
16 | C=CC(=O)N1CCN(c2nc(=O)n3c4c(c(-c5cc(O)ccc5F)c(Cl)cc24)SCC3)[C@@H](C)C1 [Example 152, 7-((S)-4-acryloyl-2-methylpiperazin-1-yl)-9-chloro-10-(2-fluoro-5-hydroxyphenyl)-2,3-dihydro-5H-[1,4]thiazino[2,3,4-ij]quinazolin-5-one] | 55.3 | –
17 | C=CC(=O)N1CCN(c2nc(=O)n3c4c(c(-c5cc(O)ccc5Cl)c(Cl)cc24)SCC3)[C@@H](C)C1 [Example 153, 7-((S)-4-acryloyl-2-methylpiperazin-1-yl)-9-chloro-10-(2-chloro-5-hydroxyphenyl)-2,3-dihydro-5H-[1,4]thiazino[2,3,4-ij]quinazolin-5-one] | 55.7 | –
18 | C=CC(=O)N1CCN(c2nc(=O)n3c4c(c(-c5cccc6ccccc56)c(Cl)cc24)SCC3)[C@@H](C)C1 [Example 154, (R)-7-((S)-4-acryloyl-2-methylpiperazin-1-yl)-9-chloro-10-(naphthalen-1-yl)-2,3-dihydro-5H-[1,4]thiazino[2,3,4-ij]quinazolin-5-one] | 24 | –
19 | C=CC(=O)N1CCN(c2nc(=O)n3c4c(c(-c5cccc6ccccc56)c(Cl)cc24)SCC3)[C@@H](C)C1 [Example 155, (S)-7-((S)-4-acryloyl-2-methylpiperazin-1-yl)-9-chloro-10-(naphthalen-1-yl)-2,3-dihydro-5H-[1,4]thiazino[2,3,4-ij]quinazolin-5-one] | 92.2 | –
20 | C=CC(=O)N1[C@@H](C)CN(c2nc(=O)n3c4c(c(-c5ccc(F)cc5F)c(Cl)cc24)SCC3)C[C@@H]1C [Example 156, 7-((3S,5S)-4-acryloyl-3,5-dimethylpiperazin-1-yl)-9-chloro-10-(2,4-difluorophenyl)-2,3-dihydro-5H-[1,4]thiazino[2,3,4-ij]quinazolin-5-one] | 0 | –
21 | C=CC(=O)N1[C@H](C)CN(c2nc(=O)n3c4c(c(-c5ccc(F)cc5F)c(Cl)cc24)SCC3)C[C@@H]1C [Example 157, 7-((3R,5S)-4-acryloyl-3,5-dimethylpiperazin-1-yl)-9-chloro-10-(2,4-difluorophenyl)-2,3-dihydro-5H-[1,4]thiazino[2,3,4-ij]quinazolin-5-one] | 95 | –
22 | C=CC(=O)N1CCN(c2nc(=O)n3c4c(c(-c5ccc(F)cc5F)c(Cl)cc24)SCC3)[C@H](C)C1 [Example 158, 7-((R)-4-acryloyl-2-methylpiperazin-1-yl)-9-chloro-10-(2,4-difluorophenyl)-2,3-dihydro-5H-[1,4]thiazino[2,3,4-ij]quinazolin-5-one] | 64 | –
23 | C=CC(=O)N1CCN(c2nc(=O)n3c4c(c(-c5c(C)ccc6[nH]ncc56)c(Cl)cc24)SCC3)[C@@H](C)C1 [Example 159, 7-((S)-4-acryloyl-2-methylpiperazin-1-yl)-9-chloro-10-(5-methyl-1H-indazol-4-yl)-2,3-dihydro-5H-[1,4]thiazino[2,3,4-ij]quinazolin-5-one] | 37.2 | –
24 | C=CC(=O)N1CCN(c2nc(=O)n3c4c(c(-c5ccccc5F)c(Cl)cc24)SCC3)[C@@H](C)C1 [Example 160, 7-((S)-4-acryloyl-2-methylpiperazin-1-yl)-9-chloro-10-(2-fluorophenyl)-2,3-dihydro-5H-[1,4]thiazino[2,3,4-ij]quinazolin-5-one] | 72.7 | –
25 | C=CC(=O)N1C[C@H](C#N)N(c2nc(=O)n3c4c(c(-c5ccc(F)cc5F)c(Cl)cc24)SCC3)C[C@H]1C [Example 161, (2R,5R)-4-acryloyl-1-(9-chloro-10-(2,4-difluorophenyl)-5-oxo-2,3-dihydro-5H-[1,4]thiazino[2,3,4-ij]quinazolin-7-yl)-5-methylpiperazine-2-carbonitrile] | 1 | –
26 | C=CC(=O)N1CCN(c2nc(=O)n3c4c(c(-c5cc(C(F)F)ccc5F)c(Cl)cc24)SCC3)[C@@H](C)C1 [Example 162, 7-((S)-4-acryloyl-2-methylpiperazin-1-yl)-9-chloro-10-(5-(difluoromethyl)-2-fluorophenyl)-2,3-dihydro-5H-[1,4]thiazino[2,3,4-ij]quinazolin-5-one] | 39 | –
27 | C=CC(=O)N1CCN(c2nc(=O)n3c4c(c(-c5cc(OC(F)F)ccc5F)c(Cl)cc24)SCC3)[C@@H](C)C1 [Example 163, 7-((S)-4-acryloyl-2-methylpiperazin-1-yl)-9-chloro-10-(5-(difluoromethoxy)-2-fluorophenyl)-2,3-dihydro-5H-[1,4]thiazino[2,3,4-ij]quinazolin-5-one] | 41.4 | –
